# What was measured:
# ErbB2 or EGFR = target: T1, ErbB2 or EGFR; assay: ErbB family substrate phosphorylation enzyme assay (HTRF), Method A or Method B; format: biochemical; settings: Method B: enzyme mix pre-incubated with compound 1 hour at 20° C., started with substrate mix
# T1 construct: enzymes purified from a baculovirus expression system; Reagent production was conducted essentially as described in Brignola, P. S., et al, (2002) J. Biol. Chem. 277(2): 1576-1585
# In short: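 Baculovirus-expressed EGFR or ErbB2 (0.8 or 10 nM in enzyme mix) phosphorylates biotinylated Peptide C with 20 µM ATP and 0.8 µM peptide (substrate-mix levels), MnCl2, pH 7.5. Reaction ran 90 min at 20 °C with EDTA stop and HTRF anti-phosphotyrosine read. Method A: enzyme added last; Method B: 1 h enzyme–compound preincubation.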
# Colo205 tumor cell lines = assay: Celltiter Glo growth inhibition assay (cellular Method B), Colo205; format: cell-based; settings: Homo sapiens, COLO 205, 72 h, 3 days, read-out: Activity (Method): growth inhibition IC50 class
# Method: (§1) Human breast tumor cells (BT474) were cultured in RPMI, (Invitrogen, 22400) containing 10% fetal bovine serum (FBS). Human head and neck tumor cells (HN5) were cultured in low glucose DMEM (Invitrogen, 12320) containing 10% FBS. Human colon tumor cells (Colo205) were cultured in DMEM (Invitrogen, 10564) containing 10% FBS. All cell lines were maintained at 37° C. in a humidified 5% CO2, 95% air incubator. Cells were harvested using trypsin/EDTA, counted using a haemocytometer, and plated in 30 microliters of the appropriate media described above, at the following densities, in a half area, black-walled, 96-well tissue culture plate (Corning 3882): BT474 3,000 cells/well, HN5 500 cells/well and Colo205 cells, 3,000 cells/well. The next day, compounds were diluted in DMEM containing […] gentamicin, from 10 mM stock solutions in DMSO. 30 microliters/well of these dilutions were added to the 30 microliters/well of media currently on the cell plates. Medium containing 0.6% DMSO was added to control wells. The final concentration of DMSO in all wells was 0.3%. Cells were incubated at 37° C., 5% CO2 for 3 days. Cell biomass was estimated using Celltiter Glo (Promega G7571). Briefly, plates were removed from the incubator and allowed to equilibrate to rt for 30 minutes. 60 microliters of Celltiter Glo reagent were added to each well of the treated cells and plates were shaken on an orbital plate shaker for 2 min. Plates were incubated without shaking for 30 more min and read in a luminometer with an integration time of 0.5 seconds per well. Percent inhibition of cell growth was calculated relative to vehicle treated control wells. Concentration of compound that inhibits 50% of vehicle control cell growth (IC50) was interpolated using nonlinear regression (Levenberg-Marquardt) and the equation, y=Vmax*(1−(x/(K+x)))+Y2, where “K” was equal to the IC50.
# [1] = tested on: BT474 and HN5 tumor cell lines; assay: Celltiter Glo growth inhibition assay (cellular Method B); format: cell-based; settings: Homo sapiens, BT-474, 72 h, 3 days, read-out: Activity (Method): growth inhibition IC50 class
# Method: as §1
SMILES,Activity (Method): pIC50 class against ErbB2 or EGFR (ErbB2 or EGFR),IC50 (Colo205 tumor cell lines) [nM],IC50 [1] [nM]
"O=C(Nc1cccc(-c2nn3cc(F)ccc3c2-c2ccnc(Nc3cccc(CN4CCCC4)c3)n2)c1)c1c(F)cccc1F [Example 172, 2,6-Difluoro-N-{3-[6-fluoro-3-(2-{[3-(1-pyrrolidinylmethyl)phenyl]amino}-4-pyrimidinyl)pyrazolo[1,5-a]pyridin-2-yl]phenyl}benzamide]",+++ (B) (at least one pIC50 measurement of greater than 7 against either ErbB2 or EGFR),> 1000,< 100
"CN(C)CCOc1cccc(Nc2nccc(-c3c(-c4ccc(F)c(NC(=O)c5c(F)cccc5F)c4)nn4ccccc34)n2)c1 [Example 182, N-[5-(3-{2-[(3-{[2-(Dimethylamino)ethyl]oxy}phenyl)amino]-4-pyrimidinyl}pyrazolo[1,5-a]pyridin-2-yl)-2-fluorophenyl]-2,6-difluorobenzamide]",+++ (B) (at least one pIC50 measurement of greater than 7 against either ErbB2 or EGFR),100 to 1000,< 100
"CN1CCc2ccc(Nc3nccc(-c4c(-c5cccc(NC(=O)c6c(F)cccc6F)c5)nn5cc(F)ccc45)n3)cc2C1 [Example 173, 2,6-Difluoro-N-[3-(6-fluoro-3-{2-[(2-methyl-1,2,3,4-tetrahydro-7-isoquinolinyl)amino]-4-pyrimidinyl}pyrazolo[1,5-a]pyridin-2-yl)phenyl]benzamide]",+++ (B) (at least one pIC50 measurement of greater than 7 against either ErbB2 or EGFR),> 1000,< 100
"CN1CCc2ccc(Nc3nccc(-c4c(-c5cccc(NC(=O)c6c(F)cccc6F)c5)nn5cccc(F)c45)n3)cc2C1 [Example 169, 2,6-Difluoro-N-[3-(4-fluoro-3-{2-[(2-methyl-1,2,3,4-tetrahydro-7-isoquinolinyl)amino]-4-pyrimidinyl}pyrazolo[1,5-a]pyridin-2-yl)phenyl]benzamide]",+++ (B) (at least one pIC50 measurement of greater than 7 against either ErbB2 or EGFR),> 1000,< 100
"O=C(Nc1cccc(-c2nn3cc(C(F)(F)F)ccc3c2-c2nc(Nc3cccc(F)c3)ncc2F)c1)c1c(F)cccc1F [Example 193, 2,6-Difluoro-N-{3-[3-{5-fluoro-2-[(3-fluorophenyl)amino]-4-pyrimidinyl}-6-(trifluoromethyl)pyrazolo[1,5-a]pyridin-2-yl]phenyl}benzamide]",+ (B) (no pIC50 measurement greater than 6 against either ErbB2 or EGFR),> 1000,> 1000
"CS(=O)(=O)Cc1cccc(Nc2nccc(-c3c(-c4cccc(NC(=O)c5c(F)cccc5F)c4)nn4ccccc34)n2)c1 [Example 135, 2,6-Difluoro-N-(3-{3-[2-({3-[(methylsulfonyl)methyl]phenyl}amino)-4-pyrimidinyl]pyrazolo[1,5-a]pyridin-2-yl}phenyl)benzamide]",+++ (B) (at least one pIC50 measurement of greater than 7 against either ErbB2 or EGFR),> 1000,< 100
"CS(=O)(=O)CCNCc1cccc(Nc2nccc(-c3c(-c4cccc(NC(=O)c5c(F)cccc5F)c4)nn4ccccc34)n2)c1 [Example 188, 2,6-Difluoro-N-{3-[3-(2-{[3-({[2-(methylsulfonyl)ethyl]amino}-methyl)phenyl]amino}-4-pyrimidinyl)pyrazolo[1,5-a]pyridin-2-yl]phenyl}benzamide]",+++ (B) (at least one pIC50 measurement of greater than 7 against either ErbB2 or EGFR),> 1000,< 100
"CS(=O)(=O)NCCOc1ccc(Nc2nccc(-c3c(-c4cccc(NC(=O)c5c(F)cccc5F)c4)nn4ccccc34)n2)cc1Cl [Example 163, N-{3-[3-(2-{[3-Chloro-4-({2-[(methylsulfonyl)amino]ethyl}-oxy)phenyl]amino}-4-pyrimidinyl)pyrazolo[1,5-a]pyridin-2-yl]phenyl}-2,6-difluorobenzamide]",+++ (B) (at least one pIC50 measurement of greater than 7 against either ErbB2 or EGFR),< 100,< 100
"NCc1cccc(Nc2nccc(-c3c(-c4cccc(NC(=O)c5c(F)cccc5F)c4)nn4ccccc34)n2)c1 [Example 180, N-{3-[3-(2-{[3-(Aminomethyl)phenyl]amino}-4-pyrimidinyl)pyrazolo[1,5-a]pyridin-2-yl]phenyl}-2,6-difluorobenzamide]",+++ (B) (at least one pIC50 measurement of greater than 7 against either ErbB2 or EGFR),> 1000,< 100
"CN(C)CCOc1cccc(Nc2nccc(-c3c(-c4cccc(NC(=O)c5c(F)cccc5F)c4)nn4cccc(F)c34)n2)c1 [Example 168, N-[3-(3-{2-[(3-{[2-(Dimethylamino)ethyl]oxy}phenyl)amino]-4-pyrimidinyl}-4-fluoropyrazolo[1,5-a]pyridin-2-yl)phenyl]-2,6-difluorobenzamide]",+++ (B) (at least one pIC50 measurement of greater than 7 against either ErbB2 or EGFR),> 1000,< 100
"COc1ccc(Nc2nccc(-c3c(-c4cccc(NC(=O)c5c(F)cccc5F)c4)nn4ccccc34)n2)cc1OCCCN(C)C.O=CO [Example 165, N-{3-[3-(2-{[3-{[3-(Dimethylamino)propyl]oxy}-4-(methyloxy)-phenyl]amino}-4-pyrimidinyl)pyrazolo[1,5-a]pyridin-2-yl]phenyl}-2,6-difluorobenzamide formic acid salt]",+++ (B) (at least one pIC50 measurement of greater than 7 against either ErbB2 or EGFR),> 1000,< 100
"CN(C)c1cccc2c(-c3ccnc(Nc4cccc(F)c4)n3)c(-c3cccc(NC(=O)c4c(F)cccc4F)c3)nn12.O=C(O)C(F)(F)F [Example 175, N-[3-(7-(Dimethylamino)-3-{2-[(3-fluorophenyl)amino]-4-pyrimidinyl}pyrazolo[1,5-a]pyridin-2-yl)phenyl]-2,6-difluorobenzamide trifluoroacetate]",+++ (B) (at least one pIC50 measurement of greater than 7 against either ErbB2 or EGFR),> 1000,100 to 1000
"CN(C)C1Cc2ccc(Nc3nccc(-c4c(-c5ccc(F)c(NC(=O)c6c(F)cccc6F)c5)nn5ccccc45)n3)cc2C1.O=C(O)C(F)(F)F (stereo not drawn) [Example 181, N-{5-[3-(2-{[2-(Dimethylamino)-2,3-dihydro-1H-inden-5-yl]amino}-4-pyrimidinyl)pyrazolo[1,5-a]pyridin-2-yl]-2-fluorophenyl}-2,6-difluorobenzamide]",+++ (B) (at least one pIC50 measurement of greater than 7 against either ErbB2 or EGFR),100 to 1000,< 100
"CN(C)CCOc1ccc(Nc2nccc(-c3c(-c4cccc(NC(=O)c5c(F)cccc5F)c4)nn4ccccc34)n2)cc1Cl [Example 128, N-[3-(3-{2-[(3-Chloro-4-{[2-(dimethylamino)ethyl]-oxy}phenyl)amino]-4-pyrimidinyl}pyrazolo[1,5-a]pyridin-2-yl)phenyl]-2,6-difluorobenzamide]",+++ (B) (at least one pIC50 measurement of greater than 7 against either ErbB2 or EGFR),> 1000,< 100
"CN(C)CCOc1cccc(Nc2nccc(-c3c(-c4cccc(NC(=O)c5c(F)cccc5F)c4)nn4cc(C(F)(F)F)ccc34)n2)c1 [Example 194, N-{3-[3-{2-[(3-{[2-(Dimethylamino)ethyl]oxy}phenyl)amino]-4-pyrimidinyl}-6-(trifluoromethyl)pyrazolo[1,5-a]pyridin-2-yl]phenyl}-2,6-difluorobenzamide]",+++ (B) (at least one pIC50 measurement of greater than 7 against either ErbB2 or EGFR),> 1000,100 to 1000
"CN(C)CCNCc1cccc(Nc2nccc(-c3c(-c4cccc(NC(=O)c5c(F)cccc5F)c4)nn4ccccc34)n2)c1 [Example 185, N-{3-[3-(2-{[3-({[2-(Dimethylamino)ethyl]amino}methyl)phenyl]-amino}-4-pyrimidinyl)pyrazolo[1,5-a]pyridin-2-yl]phenyl}-2,6-difluorobenzamide]",+++ (B) (at least one pIC50 measurement of greater than 7 against either ErbB2 or EGFR),> 1000,< 100

# From patent publication US7812022B2 (GlaxoSmithKline LLC, priority 2004, dated 2010)
